According to patent publication US9611230B2, “1,3,4-oxadiazole benzoic acid compounds and their use for nonsense suppression and the treatment of disease” (PTC Therapeutics, Inc., priority 2004, dated 2017):

| SMILES | melting point |
| --- | --- |
| Cc1ccc(-c2cc(-c3ccc(C(=O)O)cc3)no2)cc1 [Compound 534] | 297.5 to 299 °C |
| O=C(O)c1ccc(-c2cc(-c3ccc(F)cc3F)no2)cc1 [Compound 538] | 324 to 326 °C |
| Cc1ccc(-c2cc(-c3ccc(C(=O)O)cc3)on2)cc1 [Compound 541] | 307 to 308 °C |
| COc1cccc(-c2cnc(-c3ccc(C(=O)O)cc3)o2)c1 [Compound 544] | 240 to 242 °C |
| COc1ccc(-c2cnc(-c3ccc(C(=O)O)cc3)o2)cc1OC [Compound 547] | 241 to 243 °C |
| O=C(O)c1ccc(-c2ncc(-c3ccccc3F)o2)cc1 [Compound 550] | 272 to 273 °C |
| O=C(O)c1ccc(-c2ncc(-c3cccc(F)c3)o2)cc1 [Compound 553] | 264 to 265 °C |
| O=C(O)c1ccc(-c2ncc(-c3ccccc3Cl)o2)cc1 [Compound 555] | 276 to 277 °C |
| O=C(O)c1ccc(-c2ncc(-c3cccc(Cl)c3)o2)cc1 [Compound 556] | 272 to 274 °C |
| O=C(O)c1ccc(-c2ncc(-c3ccsc3)o2)cc1 [Compound 558] | 246 to 247 °C |
| Cc1ccc(-c2cc(-c3cccc(C(=O)O)c3)no2)cc1 [Compound 573] | 257 to 259 °C |
| O=C(O)c1cccc(-c2cc(-c3ccc(C(F)(F)F)cc3)on2)c1 [Compound 574] | 281 to 282 °C |
| O=C(O)c1cccc(-c2cc(-c3ccc(CO)cc3)on2)c1 [Compound 575] | 248 to 250 °C |
| O=C(O)c1cccc(-c2ncc(-c3ccccc3F)o2)c1 [Compound 579] | 228 to 229 °C |
| O=C(O)c1cccc(-c2ncc(-c3cccc(F)c3)o2)c1 [Compound 580] | 223 to 224.5 °C |
| O=C(O)c1cccc(-c2ncc(-c3ccc(F)cc3)o2)c1 [Compound 581] | 255 to 256 °C |
| O=C(O)c1cccc(-c2ncc(-c3cccc(Cl)c3)o2)c1 [Compound 583] | 220 to 222 °C |
| O=C(O)c1cccc(-c2ncc(-c3ccccc3C(F)(F)F)o2)c1 [Compound 584] | 218 to 219 °C |
| O=C(O)c1cccc(-c2ncc(-c3cccc(C(F)(F)F)c3)o2)c1 [Compound 585] | 250 to 251.5 °C |
| O=C(O)c1cccc(-c2ncc(-c3ccc(C(F)(F)F)cc3)o2)c1 [Compound 586] | 223.5 to 225 °C |
| O=C(O)c1cccc(-c2ncc(-c3cccc(OC(F)(F)F)c3)o2)c1 [Compound 587] | 210 to 211 °C |

| SMILES | melting point |
| --- | --- |
| Cc1cccc(-c2cnc(-c3cccc(C(=O)O)c3)o2)c1 [Compound 589] | 194 to 195 °C |
| COc1cccc(-c2cnc(-c3cccc(C(=O)O)c3)o2)c1 [Compound 594] | 207 to 208 °C |
| O=C(O)c1ccc(-c2nnc(-c3ccccc3)o2)cc1 [Compound 596] | > 275 °C |
| CN(C)c1cccc(-c2nnc(-c3ccccc3C(=O)O)o2)c1 [Compound 609] | 71 to 78 °C |
| CC(C)(C)C1CCC(c2nnc(-c3ccc(C(=O)O)cc3)o2)CC1 (centres unmarked) [Compound 621] | 258 to 261 °C |
| CC(C)(C)C1CCC(c2nnc(-c3cccc(C(=O)O)c3)o2)CC1 (centres unmarked) [Compound 622] | 245 to 247 °C |
| CN(C)c1ccc(-c2nnc(-c3cccc(C(=O)[O-])c3)o2)cc1.[Na+] [Compound 624] | 227 to 235 °C (dec.) |
| CC(C)c1ccc(-c2nnc(-c3cccc(C(=O)[O-])c3)o2)cc1.[Na+] [Compound 626] | 200 to 205 °C (dec.) |
| O=C(O)c1ccc(-c2ncc(-c3cc(F)ccc3F)o2)cc1 [Compound 630] | 301 to 302 °C |
| O=C(O)c1ccc(-c2ncc(-c3ccc4c(c3)OCCO4)o2)cc1 [Compound 631] | 308 to 309 °C |
| CC(C)c1ccc(-c2cnc(-c3ccc(C(=O)O)cc3)o2)cc1 [Compound 635] | 233 to 234 °C |
| CC(C)(C)c1ccc(-c2cnc(-c3ccc(C(=O)O)cc3)o2)cc1 [Compound 636] | 258 to 259 °C |
| COc1ccc(-c2cnc(-c3ccc(C(=O)O)cc3)o2)cc1 [Compound 637] | 249 to 251 °C |
| CCOc1ccc(-c2cnc(-c3ccc(C(=O)O)cc3)o2)cc1 [Compound 638] | 245 to 246 °C |
| O=C(O)c1ccc(-c2ncc(-c3ccc(Cl)cc3)o2)cc1 [Compound 639] | 260 to 263 °C |
| O=C(O)c1ccc(-c2ncc(-c3ccc(F)c(F)c3)o2)cc1 [Compound 640] | 291 to 292 °C |
| CC(C)c1cccc(-c2cnc(-c3ccc(C(=O)O)cc3)o2)c1 [Compound 644] | 236 to 237 °C |
| O=C(O)c1ccc(-c2ncc(-c3cccc(O)c3)o2)cc1 [Compound 648] | 291 to 292 °C |
| O=C(O)Cc1ccc(-c2ncc(-c3ccc(F)cc3F)o2)cc1 [Compound 650] | 191 to 193 °C |
| CC(C)c1ccc(NC(=O)Nc2cccc(-c3nnc(-c4ccc(C(=O)O)cc4)o3)c2)cc1 [Compound No. 60, 4-(5-{3-[3-(4-isopropylphenyl)ureido]phenyl}-[1,3,4]oxadiazol-2-yl)benzoic acid] | > 270 °C |
| CC(C)c1ccc(-c2noc(-c3ccc(C(=O)O)cc3)n2)cc1 [Compound No. 140, 4-[3-(4-isopropylphenyl)-1,2,4-oxadiazol-5-yl]benzoic acid] | 253 to 255 °C |

Second part, the molecule after the results:

| melting point | SMILES |
| --- | --- |
| 298 to 300 °C | COc1ccc(-c2cc(-c3ccc(C(=O)O)cc3)no2)cc1 [Compound 532] |
| 273 to 275 °C | O=C(O)c1ccc(-c2cc(-c3ccc(Cl)cc3)on2)cc1 [Compound 533] |
| 302 to 303 °C | O=C(O)c1ccc(-c2cc(-c3ccccc3F)no2)cc1 [Compound 535] |
| 319 to 321 °C | O=C(O)c1ccc(-c2cc(-c3cccc(F)c3)no2)cc1 [Compound 536] |
| 322 to 323 °C | O=C(O)c1ccc(-c2cc(-c3ccc(F)cc3)no2)cc1 [Compound 537] |
| 297.5 to 299.5 °C | COc1ccc(-c2cc(-c3ccc(C(=O)O)cc3)on2)cc1 [Compound 539] |
| 320.5 to 322.5 °C | O=C(O)c1ccc(-c2cc(-c3ccc(Cl)cc3)no2)cc1 [Compound 540] |
| 284 to 285 °C | O=C(O)c1ccc(-c2ncc(-c3cccc(OC(F)(F)F)c3)o2)cc1 [Compound 542] |
| 286 to 287 °C | O=C(O)c1ccc(-c2ncc(-c3cccc(C(F)(F)F)c3)o2)cc1 [Compound 543] |
| 222 to 224 °C | O=C(O)c1ccc(-c2ncc(-c3ccc(OC(F)(F)F)cc3)o2)cc1 [Compound 546] |
| 295 to 296 °C | O=C(O)c1ccc(-c2ncc(-c3cccc(F)c3F)o2)cc1 [Compound 549] |
| 238 to 239 °C | COc1cccc(-c2cc(-c3cccc(C(=O)O)c3)n[nH]2)c1 [Compound 551] |
| 245 to 246 °C | O=C(O)c1ccc(-c2ncc(-c3ccc(F)cc3)o2)cc1 [Compound 554] |
| 269 to 270 °C | O=C(O)c1ccc(-c2ncc(-c3ccc4c(c3)OCO4)o2)cc1 [Compound 557] |
| 236 to 237 °C | O=C(O)c1cccc(-c2ncc(-c3ccccc3Cl)o2)c1 [Compound 582] |
| 207 to 208 °C | Cc1ccccc1-c1cnc(-c2cccc(C(=O)O)c2)o1 [Compound 588] |
| 174 to 175 °C | CCc1ccc(-c2cnc(-c3cccc(C(=O)O)c3)o2)cc1 [Compound 590] |
| 213 to 215 °C | CC(C)c1cccc(-c2cnc(-c3cccc(C(=O)O)c3)o2)c1 [Compound 591] |
| 224 to 225 °C | CC(C)(C)c1ccc(-c2cnc(-c3cccc(C(=O)O)c3)o2)cc1 [Compound 592] |

| melting point | SMILES |
| --- | --- |
| 244 to 246 °C | COc1ccccc1-c1cnc(-c2cccc(C(=O)O)c2)o1 [Compound 593] |
| 177 to 178 °C | CN(C)c1ccccc1-c1nnc(-c2ccc(C(=O)O)cc2)o1 [Compound 601] |
| 170 to 172 °C | CN(C)c1ccccc1-c1nnc(-c2cccc(C(=O)O)c2)o1 [Compound 605] |
| 197 to 200 °C | CN(C)c1ccc(-c2nnc(-c3ccccc3C(=O)O)o2)cc1 [Compound 606] |
| 180 to 183 °C | CN(C)c1ccccc1-c1nnc(-c2ccccc2C(=O)O)o1 [Compound 610] |
| 190 to 192 °C | O=C(O)c1cccc(-c2nnc(-c3ccccc3)o2)c1 [Compound 615] |
| 190 to 192 °C | CC(C)c1cccc(-c2nnc(-c3cccc(C(=O)O)c3)o2)c1 [Compound 620] |
| > 300 °C | CC(C)c1cccc(-c2nnc(-c3ccc(C(=O)[O-])cc3)o2)c1.[Na+] [Compound 628] |
| 248 to 249 °C | Cc1cccc(-c2cnc(-c3ccc(C(=O)O)cc3)o2)c1 [Compound 632] |
| 233 to 234 °C | CCc1ccc(-c2cnc(-c3ccc(C(=O)O)cc3)o2)cc1 [Compound 634] |
| 273 to 274 °C | O=C(O)c1ccc(-c2ncc(-c3cc(F)cc(F)c3)o2)cc1 [Compound 641] |
| 259 to 261 °C | O=C(O)c1ccc(-c2ncc(-c3ccc(Br)cc3)o2)cc1 [Compound 642] |
| 284 to 286 °C | Cc1ccccc1-c1cnc(-c2ccc(C(=O)O)cc2)o1 [Compound 643] |
| 305 to 306 °C | COc1ccccc1-c1cnc(-c2ccc(C(=O)O)cc2)o1 [Compound 645] |
| 210 to 211 °C | O=C(O)c1ccc(-c2ncc(-c3cccc(OCc4ccccc4)c3)o2)cc1 [Compound 646] |
| 220 to 222 °C | O=C(O)c1ccc(-c2ncc(-c3ccc(Oc4ccccc4)cc3)o2)cc1 [Compound 647] |
| 295 to 297 °C | O=C(O)c1ccc(-c2ncc(-c3ccc(F)c(Cl)c3)o2)cc1 [Compound 649] |
| 251 to 253 °C | O=C(O)c1ccc(-c2ncc(C#Cc3ccccc3)o2)cc1 [Compound 651] |
| 235 to 237 °C | O=C(O)c1cccc(-c2nnc(-c3ccc(N4CCOCC4)cc3)o2)c1 [Compound No. 82, 3-[5-(4-morpholin-4-yl-phenyl)-[1,3,4]oxadiazol-2-yl]benzoic acid] |
